The record followed here is patent US7186709B2, “Dihydropyrancarboxamides and uses thereof” (President and Fellows of Harvard College, priority 2002, dated 2007).

The subject of test [1] is human A549 lung carcinoma cells. Briefly: genistein suppressor screen (BrdU cytoblot with 100 μM genistein challenge). Type of test: cell-based. As to conditions: A549 cells challenged with 100 μM genistein. As for the experimental part: Both plates of stock solutions (10) were used in phenotypic assays. In particular, we exposed living human A549 lung carcinoma cells to 708 (324+384) stock solutions under two different assay conditions. These experiments were performed with a hand-held pin-transfer tool, though our complete technology platform includes a pin-transfer robot capable of mapping into multiple microtiter plates. In certain embodiments, cultured cells exposed to 5-bromodeoxyuridine (BrdU) will incorporate this base analog into their DNA when actively dividing, and this incorporation can be detected by cytoblot assay using antibodies directed against BrdU (B. R. Stockwell, S. J. Haggarty, S. L. Schreiber, High-throughput screening of small molecules in miniaturized mammalian cell-based assays involving post-translational modifications, Chem. Biol. 6 (1999) 71–83). […] Thus, ‘hits’ in the former assay are detected as a loss of signal in a high-signal array (FIG. 14(a)), while ‘hits’ in the latter assay are detected as a gain of signal in a lowsignal array (FIG. 14(b)). […]
For each of these assays, aliquots from each of the two plates (10) were exposed to cells in duplicate to ensure the fidelity of the results. Compounds were scored as ‘hits’ only if they scored strongly in both replicates of a given experiment. […]

A further test addresses T1, human Eg5 (Homo sapiens, UniProt P52732).
T1 construct: 1 μM microtubules and 40 nM Eg5-367H; His6 (C); made in house; host or cells: pRSETa backbone
T1 sequence (P52732 1-367): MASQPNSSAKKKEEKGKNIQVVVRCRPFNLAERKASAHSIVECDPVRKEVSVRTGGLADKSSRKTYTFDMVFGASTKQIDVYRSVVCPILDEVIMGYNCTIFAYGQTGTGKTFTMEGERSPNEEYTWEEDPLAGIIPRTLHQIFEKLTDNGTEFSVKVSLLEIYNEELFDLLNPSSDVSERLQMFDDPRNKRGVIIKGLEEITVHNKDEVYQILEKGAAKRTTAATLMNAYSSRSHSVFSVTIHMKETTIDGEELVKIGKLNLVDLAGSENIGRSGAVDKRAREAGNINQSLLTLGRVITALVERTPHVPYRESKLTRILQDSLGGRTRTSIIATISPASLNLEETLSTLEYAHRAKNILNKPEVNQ
Briefly: steady-state Eg5 ATPase assay (NADH-coupled). The test is classed as biochemical. As to conditions: library screen. The source says:
Coding regions for the expression of C-terminally His6-tagged constructs of human Eg5 were generated by polymerase chain reaction using a pBluescript template containing full length human Eg5 [23] and the following primers: a common N-terminal primer 5′-[…] and specific C-teminal primers; 5′-[…] (hEg5–367H), 5′-[…] (hEg5–405H), 5′-[…] (hEg5–437H). The PCR products were ligated into a pRSETa backbone. Eg5 protein constructs were expressed and purified as described previously [Woehike, G., Ruby, A. K., Hart, C. L., Ly, B., Hom-Booher, N. and Vale, R. D. (1997) Microtubule interaction site of the kinesin motor. Cell. 90, 207–216]. […] The concentration of Eg5 was measured using the Edelhoch [Pace, C. […]
We measured the ATPase activity of Eg5 in vitro using an assay that couples the hydrolysis of ATP to the oxidation of NADH [Woehike, G., Ruby, A. K., Hart, C. […] In the assay, the concentration of ATP remains constant however, the decrease in NADH fluorescence is a convenient measure of the amount of ATP turned over. […] Time-points for NADH fluorescence were measured in 384 well black plates (NalgeneNUNC) by a Wallac Victor^2 1420 multilabel counter, umbelliferone filter set (excitation: 355 nm, emission: 420 nm), and the steady-state rate of fluorescence decay was calculated using a linear fit by Microsoft Excel. […]

Consider `O=c1c(-c2ccc(O)cc2)coc2cc(O)cc(O)c12` [genistein, 4′,5,7 trihydroxyisoflavone], for which the “BrdU incorporation judged by cytoblot assay” value in test [1] is recorded as “impaired”.

As to `CCO[C@H]1OC(C(=O)NCc2ccc(F)cc2)=C[C@@H](c2ccccc2)[C@H]1CCCO`, the Eg5 inhibitory activity entry on human Eg5 is recorded as “found to inhibit Eg5”.
